Experimental data: US7947694B2, “Substituted pyrazolo[3,4-D]pyrimidines as cell cycle kinase inhibitors” (Janssen Pharmaceutica NV, priority 2005, dated 2011)
Where a name gives a salt, the structure may show the parent alone.

Legend:
[1] = target: T1, Aurora A (Homo sapiens, UniProt O14965); assay: In vitro filtration assay for AURORA A inhibitory activity; format: biochemical; details: 200 μM Kemptide substrate, [33P]-ATP, 1 μM unlabeled ATP, 25° C., 40 minutes; read-out: Aurora A see C.2 (pIC50) (converted)
T1 sequence (O14965 1-403): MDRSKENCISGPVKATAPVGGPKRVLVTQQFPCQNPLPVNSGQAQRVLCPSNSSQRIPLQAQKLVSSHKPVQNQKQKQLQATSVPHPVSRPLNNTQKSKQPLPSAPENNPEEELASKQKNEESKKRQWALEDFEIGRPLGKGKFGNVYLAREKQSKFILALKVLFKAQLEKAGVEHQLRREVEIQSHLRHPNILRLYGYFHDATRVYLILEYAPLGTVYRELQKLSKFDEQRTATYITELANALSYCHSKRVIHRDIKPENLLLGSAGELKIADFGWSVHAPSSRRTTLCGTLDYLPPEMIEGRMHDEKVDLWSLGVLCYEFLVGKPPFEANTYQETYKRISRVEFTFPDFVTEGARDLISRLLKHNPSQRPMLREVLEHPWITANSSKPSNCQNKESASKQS
Procedure: C.2. In Vitro Filtration Assay for AURORA A Inhibitory Activity
(§1) Compounds of the present invention were tested in an in vitro filtration assay assessing AURORA A activity by means of its substrate-phosphorylation activity using [^33P]-ATP as phosphor donor. The radioactive phosphorylated substrate is then captured on filtermats and the incorporated [^33P] quantitated using a phosphorage storage screen.
The Aurora-A kinase reaction is performed at 25° C. for 40 minutes in a 96-well microtiterplate. The 25 μl reaction volume contains 12 mM MOPS pH 7, 0.4 mM EDTA, 0.002% Brij35, 1% glycerol, 0.02% beta-mercapto-ethanol, 0.2 mg/ml BSA, 1 μM unlabeled ATP, 0.2 μCi [^33P]-ATP, 200 μM Kemptide, 3 ng Aurora A/well and 0.2% compound in 100% DMSO.
(§2) The reaction is stopped by adding 5 μl of a 3% phosphoric acid solution. 10 μl of the reaction mixture is then spotted onto a Filtermat P30 filter (Wallac) and washed 3 times for 5 min. in 75 mM phosphoric acid and 1 time for 5 min. in methanol prior to drying and quantification on the Typhoon (Amersham) using a phosphorage storage screen.
(§3) C.4. Calculation of pIC50 Values
(§4) For each experiment, controls (containing enzyme (complex) and DMSO without compound), a blank incubation (containing DMSO but no enzyme (complex) or compound) and samples (containing enzyme (complex) and compound dissolved in DMSO) were run in parallel. All compounds tested were dissolved and eventually further diluted in DMSO. […] In each test, the blank value was subtracted from both the control and the sample values. The control sample represented maximal enzyme activity. For each sample, the amount of cpm was expressed as a percentage of the mean cpm value of the controls. When appropriate, IC50-values (concentration of the drug, needed to reduce the enzyme activity to 50% of the control) were computed using linear interpolation between the experimental points just above and below the 50% level. Herein the effects of test compounds are expressed as pIC50 (the negative log value of the IC50-value).

[2] = target: CDK4/cyclinD1 (Homo sapiens, UniProt P11802); assay: In vitro filtration assay for CDK4 inhibitory activity; format: biochemical; details: GST-pRb phosphorylation, [33P]-ATP, 1 μM unlabeled ATP, 25° C., 45 minutes; read-out: cdk4 filter (pIC50) (converted)
Procedure: C.1. In Vitro Filtration Assay for CDK4 Inhibitory Activity
as §1, with “CDK4” for “AURORA A”, “pRb-phosphorylation” for “substrate-phosphorylation”, “pRb” for “substrate”
The CDK4 kinase reaction is performed at 25° C. for 45 minutes in a 96-well microtiterplate. The 25 μl reaction volume contains 50 mM Hepes pH 7.5, 10 mM NaF, 10 mM MgCl2, 1 mM Na3VO4, 1 μM unlabeled ATP, 1 mM DTT, 0.5 μCi AT^33P, 0.76 μg/well GST-pRb, 50 ng CDK4/cyclinD1/well and 0.2% compound in 100% DMSO.
as §2, §3, §4

[3] = target: Aurora-B (Homo sapiens, UniProt Q96GD4); assay: In vitro filtration assay for AURORA B inhibitory activity; format: biochemical; details: peptide (C(LRRWSLG)×4) substrate, [33P]-ATP, 1 μM unlabeled ATP, 25° C., 40 minutes; read-out: Aurora B see C.3 (pIC50) (converted)
Procedure: C.3 In Vitro Filtration Assay for AURORA B Inhibitory Activity
as §1, with “AURORA B” for “AURORA A”
The Aurora-B kinase reaction is performed at 25° C. for 40 minutes in a 96-well microtiterplate. The 25 μl reaction volume contains 60 mM Hepes pH 7.5, 3 mM MgCl2, 3 mM MnCl2, 3 μM Na3VO4, 50 μg/ml PEG20000, 1 μM unlabeled ATP, 1 mM DTT, 0.2 μCi AT^33P, 0.25 μg/well peptide (C(LRRWSLG)×4), 100 ng Aurora-B/well and 0.2% compound in 100% DMSO.
as §2, §3, §4

Aurora-B, sequence (Q96GD4 whole entry): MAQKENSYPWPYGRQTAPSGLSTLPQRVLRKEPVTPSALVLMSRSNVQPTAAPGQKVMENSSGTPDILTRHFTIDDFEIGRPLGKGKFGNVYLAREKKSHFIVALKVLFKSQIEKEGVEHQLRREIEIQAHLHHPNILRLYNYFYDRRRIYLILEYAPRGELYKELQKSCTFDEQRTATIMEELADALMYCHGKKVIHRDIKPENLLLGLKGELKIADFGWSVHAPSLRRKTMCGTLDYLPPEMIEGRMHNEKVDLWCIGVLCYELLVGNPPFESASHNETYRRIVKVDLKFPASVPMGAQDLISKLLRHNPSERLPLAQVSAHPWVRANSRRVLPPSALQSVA
CDK4/cyclinD1, sequence (P11802 whole entry, species assumed): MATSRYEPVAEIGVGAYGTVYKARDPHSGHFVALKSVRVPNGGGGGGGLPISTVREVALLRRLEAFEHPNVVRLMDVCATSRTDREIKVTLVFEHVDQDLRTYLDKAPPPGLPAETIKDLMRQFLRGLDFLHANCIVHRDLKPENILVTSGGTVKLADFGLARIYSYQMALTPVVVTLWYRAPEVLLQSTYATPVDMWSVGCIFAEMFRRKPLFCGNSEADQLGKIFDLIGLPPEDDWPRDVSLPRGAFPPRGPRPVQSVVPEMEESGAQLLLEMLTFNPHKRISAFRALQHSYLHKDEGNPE
CDK4/cyclinD1, sequence (P24385 whole entry partner, species assumed): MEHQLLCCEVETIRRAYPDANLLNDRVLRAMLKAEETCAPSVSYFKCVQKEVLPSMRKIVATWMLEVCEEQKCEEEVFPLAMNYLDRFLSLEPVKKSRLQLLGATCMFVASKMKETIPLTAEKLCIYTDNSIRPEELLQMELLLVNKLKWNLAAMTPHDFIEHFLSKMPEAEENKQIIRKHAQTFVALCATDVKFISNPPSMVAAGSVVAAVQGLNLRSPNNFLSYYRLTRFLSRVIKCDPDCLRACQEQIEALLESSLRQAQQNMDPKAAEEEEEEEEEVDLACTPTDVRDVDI

## COCCCNCc1ccc(Nc2ncc3cnn(C4CCCCC4)c3n2)cc1 (as salt: HCl) [Co. No. 2]
other
  melting point: 212 to 214 °C

## CCN(CC)CC(O)COc1ccc(Nc2ncc3cnn(C4CCCCC4)c3n2)cc1 (centres unmarked) [Co. No. 1]
[1]
  IC50: 1580 nM
[2]
  IC50: 7.94 nM
[3]
  IC50: > 10000 nM

## COCCCNCc1ccc(Nc2ncc3cnn(C4CCCCC4)c3n2)cc1 [Co. No. 2]
[1]
  IC50: 158 nM
[2]
  IC50: 6.31 nM
[3]
  IC50: > 10000 nM

## c1ncn(-c2ccc(Nc3ncc4cnn(C5CCCCC5)c4n3)cc2)n1 [Co. No. 3]
other
  melting point: 222.5 to 224 °C
[1]
  IC50: 126 nM
[2]
  IC50: 15.8 nM
[3]
  IC50: 7940 nM

## c1ccc2c(c1)CC(NCc1ccc(Nc3ncc4cnn([C@H]5C[C@@H]6CC[C@H]5C6)c4n3)cc1)C2 [Co. No. 4]
[1]
  IC50: 316 nM
[2]
  IC50: 25.1 nM
[3]
  IC50: 316 nM

## COCCCNS(=O)(=O)c1ccc(Nc2ncc3cnn(C4CCCCC4)c3n2)cc1 [Co. No. 5]
[1]
  IC50: 631 nM
[2]
  IC50: 1260 nM
[3]
  IC50: > 10000 nM

## CCN(CC)CCNC(=O)c1ccc(Nc2ncc3cnn(C4CCCCC4)c3n2)cc1 [Co. No. 6]
[1]
  IC50: 1580 nM
[2]
  IC50: 25.1 nM
[3]
  IC50: > 10000 nM

## CCN(CC)CCCOc1ccc(Nc2ncc3cnn(C4CCCCC4)c3n2)cc1 [Co. No. 7]
[1]
  IC50: > 10000 nM
[2]
  IC50: 20 nM
[3]
  IC50: > 10000 nM

## COCCCN(Cc1ccc(Nc2ncc3cnn(C4CCCCC4)c3n2)cc1)C(=O)OC(C)(C)C [Co. No. 8]
[1]
  IC50: 631 nM
[2]
  IC50: 1000 nM
[3]
  IC50: > 10000 nM

## COCCCNCc1ccc(Nc2ncc3cnn([C@H]4C[C@@H]5CC[C@H]4C5)c3n2)cc1 [Co. No. 9]
[1]
  IC50: 251 nM
[2]
  IC50: 79.4 nM
[3]
  IC50: 158 nM

## COCCCNCc1ccc(Nc2ncc3cnn([C@H]4C[C@@H]5CC[C@H]4C5)c3n2)cc1 [Co. No. 10]
[1]
  IC50: 200 nM
[2]
  IC50: 31.6 nM
[3]
  IC50: 200 nM

## COCCCN(Cc1ccc(Nc2ncc3cnn([C@H]4C[C@@H]5CC[C@H]4C5)c3n2)cc1)C(=O)OC(C)(C)C [Co. No. 11]
[1]
  IC50: 794 nM
[2]
  IC50: 2000 nM
[3]
  IC50: 5010 nM

## COCCCNCc1ccc(Nc2ncc3cnn(C4CCOCC4)c3n2)cc1 [Co. No. 12]
[1]
  IC50: 3980 nM
[2]
  IC50: 631 nM
[3]
  IC50: 7940 nM

## COCCCN(Cc1ccc(Nc2ncc3cnn(C4CCOCC4)c3n2)cc1)C(=O)OC(C)(C)C [Co. No. 13]
[1]
  IC50: 100 nM
[2]
  IC50: 2000 nM
[3]
  IC50: 794 nM

## c1cc2cc(Nc3ncc4cnn(C5CCCCC5)c4n3)ccc2[nH]1 [Co. No. 14]
[1]
  IC50: 316 nM
[2]
  IC50: 158 nM
[3]
  IC50: 7940 nM

## CC(C)(C)OC(=O)N(Cc1ccc(Nc2ncc3cnn(C4CCCCC4)c3n2)cc1)C1Cc2ccccc2C1 [Co. No. 15]
[1]
  IC50: 1000 nM
[2]
  IC50: > 10000 nM
[3]
  IC50: > 10000 nM

## c1ccc2c(c1)CC(NCc1ccc(Nc3ncc4cnn(C5CCCCC5)c4n3)cc1)C2 [Co. No. 16]
[1]
  IC50: 251 nM
[2]
  IC50: 12.6 nM
[3]
  IC50: 7940 nM

## O=C(NC1Cc2ccccc2C1)c1ccc(Nc2ncc3cnn(C4CCCCC4)c3n2)cc1 [Co. No. 17]
[1]
  IC50: 316 nM
[2]
  IC50: 63.1 nM
[3]
  IC50: 501 nM

## c1ccc2c(c1)CC(NCc1ccc(Nc3ncc4cnn(C5CCOCC5)c4n3)cc1)C2 [Co. No. 18]
[1]
  IC50: 3160 nM
[2]
  IC50: 63.1 nM
[3]
  IC50: 6310 nM

## CC(C)(C)OC(=O)N(c1ccc(CN(C(=O)OC(C)(C)C)C2Cc3ccccc3C2)cc1)c1ncc2cnn([C@H]3C[C@@H]4CC[C@H]3C4)c2n1 [Co. No. 19]
[1]
  IC50: 158 nM
[2]
  IC50: > 10000 nM
[3]
  IC50: 631 nM

## CC(C)(C)OC(=O)N(Cc1ccc(Nc2ncc3cnn([C@H]4C[C@@H]5CC[C@H]4C5)c3n2)cc1)C1Cc2ccccc2C1 [Co. No. 20]
[1]
  IC50: 6310 nM
[2]
  IC50: > 10000 nM
[3]
  IC50: > 10000 nM

## CN(C)CCOC(=O)c1ccc(Nc2ncc3cnn(C4CCCCC4)c3n2)cc1 [Co. No. 21]
[1]
  IC50: 631 nM
[2]
  IC50: 100 nM
[3]
  IC50: 7940 nM
